PubChem BioAssay (NCI)
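Tested at 5 concentrations; 48 h exposure; 96-well plates; endpoints linearly interpolated, else capped at highest concentration. TGI: total growth inhibition.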

Legend:
Assay in all cases: NCI anticancer screen, dose series, 48 h
[1] = system: 786-0 renal
[2] = system: A498 renal
[3] = system: A549 NSCLC
[4] = system: ACHN renal
[5] = system: BT-549 breast
[6] = system: CAKI-1 renal
[7] = system: CCRF-CEM leukemia
[8] = system: COLO 205 colon
[9] = system: DU-145 prostate
[10] = system: EKVX NSCLC
[11] = system: HCT-116 colon
[12] = system: HCT-15 colon
[13] = system: HL-60(TB) leukemia
[14] = system: HOP-62 NSCLC
[15] = system: HOP-92 NSCLC
[16] = system: HT29 colon
[17] = system: IGROV1 ovarian
[18] = system: K-562 leukemia
[19] = system: KM12 colon
[20] = system: LOX IMVI melanoma
[21] = system: M14 melanoma
[22] = system: MCF7 breast
[23] = system: MDA-MB-231 breast
[24] = system: MDA-MB-435
[25] = system: MDA-N
[26] = system: MOLT-4 leukemia
[27] = system: NCI-H226 lung
[28] = system: NCI-H23 lung
[29] = system: NCI-H460 lung
[30] = system: NCI/ADR-RES ovarian
[31] = system: OVCAR-3 ovarian
[32] = system: OVCAR-4 ovarian
[33] = system: OVCAR-5 ovarian
[34] = system: OVCAR-8 ovarian
[35] = system: PC-3 prostate
[36] = system: RPMI-8226 leukemia
[37] = system: RXF 393 renal
[38] = system: SF-295 CNS
[39] = system: SF-539 CNS
[40] = system: SK-MEL-2 melanoma
[41] = system: SK-MEL-28 melanoma
[42] = system: SK-MEL-5 melanoma
[43] = system: SK-OV-3 ovarian
[44] = system: SN12C renal
[45] = system: SNB-19 CNS
[46] = system: SNB-75 CNS
[47] = system: SR leukemia
[48] = system: SW-620 colon
[49] = system: T-47D breast
[50] = system: TK-10 renal
[51] = system: U251 CNS
[52] = system: UACC-257 melanoma
[53] = system: UACC-62 melanoma
[54] = system: HCC-2998 colon
[55] = system: MALME-3M melanoma
[56] = system: NCI-H522 lung
[57] = system: UO-31 renal
[58] = system: SF-268 CNS

Measured: TGI

O=S(=O)(O)c1cc(N=Nc2cccc3ccccc23)c(O)c2ncccc12
69.4 µM: [29]
65.7 µM: [47]
85.8 µM: [27]
83.5 µM: [16]
not listed: [54] | [55] | [56] | [57] | [58]
> 100 µM: all other assays above

COc1ccc2c(C)cc(C)nc2n1
not listed: [27] | [39] | [58]
> 100 µM: all other assays above

CC(NC(=O)OC(C)(C)C)C(=O)NC(Cc1ccccc1)C(=O)NCC(=O)ON=C1CCCC1 (configuration not stated)
> 100 µM: all assays above

C[C@]12CCC3c4ccc(O)cc4CC[C@H]3C1CC(=O)NC2=O (some centres not stated)
not listed: [10] | [46] | [53] | [56]
> 10 µM: all other assays above

Cc1cc(S(=O)(=O)NC2=NCC(C)NN2)c(S)cc1Cl (configuration not stated)
69.8 µM: [2]
84.3 µM: [40]
73 µM: [58]
61.8 µM: [36]
53.3 µM: [17]
90.4 µM: [47]
47 µM: [56]
80.9 µM: [18]
37.7 µM: [20]
69.2 µM: [55]
not listed: [15]
> 100 µM: all other assays above
